These results are taken from doi:10.1101/2024.08.25.609621 (bioRxiv, 2024).

Where “and” joins values, the source holds several entries; their conditions need not be identical. Equal entries are not always repeated. Entries after “also recorded” stand apart in the source; their conditions may differ. Where two headings read alike, the source gives them in different places.

In assay [1] the target is SARS-CoV-2 NSP3 macrodomain (Mac1), P43 crystal form (Severe acute respiratory syndrome coronavirus 2, UniProt P0DTD1). It is filed as binding. The settings on record: for 1-BDC: PanDDA background density correction; for Comment: comment on ligand modeling / Phe132 loop density; for PanDDA run, DMSO background map: 1-BDC / 1-BDC (PanDDA run, DMSO background map): event 1; for Pandda run, overall: Hit / Pandda run, overall: Modeled / Pandda run, overall: Modeling comment / Hit (PanDDA run, overall): P43 crystals; for Total number of conformations: ligand conformations modeled in Mac1 crystal structure; for 2*(1-BDC) (%): occupancy estimate from PanDDA BDC; for X-ray crystallography: Binding site: site where the ligand is bound in the X-ray crystal structure.

For assay [2], the target named is SARS-CoV-2 NSP3 macrodomain (Mac1) (Severe acute respiratory syndrome coronavirus 2, UniProt P0DTD1). Briefly: biochemical. It is filed as binding. The settings on record: for Hill slope: HTRF dose-response fit, Mac1; for SARS CoV-2 macrodomain HTRF assay: Hillslope: dose-response fit. (In TR-FRET formats the signal depends on donor and acceptor labels being close together.)

Where [3] appears, read: crystal soak concentration 10 mM.

What is called Hill slope is the slope factor of the fitted curve. For the compound `CC(C)(O)C1C2CCC2CN1c1ncnc2[nH]ccc12` (stereo not drawn) [AVI-4128], in assay [1], the “Occupancy difference (refined_occupancy - 2*(1-BDC))” value (“Occupancy difference” below) was determined as 20, the “Refined ligand occupancy (%)” value was found to be 60%, the 1-BDC was determined as 0.2 and the Comment entry was “Weak density for open conformation”. Also, in assay [1], the “Total number of conformations” value came out at 1, the “2*(1-BDC) (%)” value is recorded as 40% and the “X-ray crystallography: Binding site” value was “Adenosine”. For the same compound, in assay [1] (setting [3]), the “PanDDA run, DMSO background map: 1-BDC” value was 0.27 and 0.2; the “Pandda run, overall: Hit” value is “TRUE”; the “Pandda run, overall: Modeled” value is on record as “TRUE”; the “Pandda run, overall: Modeling comment” value was “Duplicate, not modeled; also recorded: Weak density for open conformation”. Also, in assay [1] (setting [3]), the “PanDDA run, DMSO background map: Hit” value is listed as “TRUE” and the “PanDDA run, DMSO background map: Modeled” value is listed as “TRUE”. In addition, in assay [2], the Hill slope is reported as 1.2 and the “SARS CoV-2 macrodomain HTRF assay: Hillslope” value came out at 1.2.
`Cc1c[nH]c2ncnc(NCC3(O)CCOCC3)c12` [AVI-4194, 4-(((5-methyl-7H-pyrrolo[2,3-d]pyrimidin-4-yl)amino)methyl)tetrahydro-2H-pyran-4-ol]: in assay [1], the “Occupancy difference” value worked out at 0, the “Refined ligand occupancy (%)” value worked out at 18%, the 1-BDC is reported as 0.09 and the “Total number of conformations” value was 1. Also, in assay [1], the “2*(1-BDC) (%)” value is recorded as 18% and the “X-ray crystallography: Binding site” value is given as “Adenosine”. In assay [1] (setting [3]), the “PanDDA run, DMSO background map: 1-BDC” value is 0.13 and 0.09; the “Pandda run, overall: Hit” value was “TRUE”; the “Pandda run, overall: Modeled” value was “TRUE”; the “Pandda run, overall: Modeling comment” value is “Duplicate, not modeled”. For the same compound, in assay [1] (setting [3]), the “PanDDA run, DMSO background map: Hit” value is listed as “TRUE” and the “PanDDA run, DMSO background map: Modeled” value is reported as “TRUE”. In assay [2], the Hill slope is recorded as 1.3 and the “SARS CoV-2 macrodomain HTRF assay: Hillslope” value was 1.3.
`Cc1c[nH]c2ncnc(NCC3(O)CCSCC3)c12` [AVI-4195, 4-(((5-methyl-7H-pyrrolo[2,3-d]pyrimidin-4-yl)amino)methyl)tetrahydro-2H-thiopyran-4-ol]: in assay [1], the “Occupancy difference” value is listed as 0, the “Refined ligand occupancy (%)” value is listed as 28%, the 1-BDC was determined as 0.14 and the “Total number of conformations” value is reported as 1. In assay [1], the “2*(1-BDC) (%)” value is 28% and the “X-ray crystallography: Binding site” value is given as “Adenosine”. For the same compound, in assay [1] (setting [3]), the “PanDDA run, DMSO background map: 1-BDC” value was 0.14; the “Pandda run, overall: Hit” value is on record as “TRUE”; the “Pandda run, overall: Modeled” value is reported as “TRUE”; the “Pandda run, overall: Modeling comment” value was “Duplicate, not modeled”. Further, in assay [1] (setting [3]), the “PanDDA run, DMSO background map: Hit” value was “TRUE” and the “PanDDA run, DMSO background map: Modeled” value is recorded as “TRUE”. In assay [2], the Hill slope came out at 1.2 and the “SARS CoV-2 macrodomain HTRF assay: Hillslope” value is reported as 1.2.
Turning to `CC1CCCC(O)(CNc2ncnc3[nH]ccc23)C1` (stereo not drawn) [AVI-4307], in assay [1], the “Occupancy difference” value is 0; the “Refined ligand occupancy (%)” value amounted to 34%; the “PanDDA run, DMSO background map: 1-BDC” value amounted to 0.26; the 1-BDC was determined as 0.17. Moreover, in assay [1], the “Total number of conformations” value worked out at 1, the “2*(1-BDC) (%)” value is reported as 34% and the “X-ray crystallography: Binding site” value is “Adenosine”. In addition, in assay [1] (crystal soak 10 mM), the “Hit (PanDDA run, overall)” value was “TRUE”; the “Hit (PanDDA run, DMSO background map)” value is “TRUE”; the “1-BDC (PanDDA run, DMSO background map)” value is on record as 0.17. Besides, in assay [2], the Hill slope is 1.0 and the “SARS CoV-2 macrodomain HTRF assay: Hillslope” value is reported as 1.0.
On to `OC1(CNc2ncnc3[nH]ccc23)CCC(F)(F)CC1` [AVI-4308], for which, in assay [1], the “Occupancy difference” value is reported as 0; the “Refined ligand occupancy (%)” value came to 30%; the “PanDDA run, DMSO background map: 1-BDC” value is 0.16; the 1-BDC came to 0.15. In assay [1], the “Total number of conformations” value is 1, the “2*(1-BDC) (%)” value is recorded as 30% and the “X-ray crystallography: Binding site” value was “Adenosine”. In assay [1] (crystal soak 10 mM), the “Hit (PanDDA run, overall)” value is reported as “TRUE”; the “Hit (PanDDA run, DMSO background map)” value is recorded as “TRUE”; the “1-BDC (PanDDA run, DMSO background map)” value was determined as 0.15. For the same compound, in assay [2], the Hill slope worked out at 1.2 and the “SARS CoV-2 macrodomain HTRF assay: Hillslope” value is given as 1.2.
Consider `OC1(CNc2ncnc3[nH]ccc23)CCCC(C(F)(F)F)C1` (stereo not drawn) [AVI-4309], for which, in assay [1], the “Occupancy difference” value was 0; the “Refined ligand occupancy (%)” value was found to be 40%; the “PanDDA run, DMSO background map: 1-BDC” value is recorded as 0.2; the 1-BDC was 0.2. Besides, in assay [1], the “Total number of conformations” value was found to be 1, the “2*(1-BDC) (%)” value is given as 40% and the “X-ray crystallography: Binding site” value is on record as “Adenosine”. In assay [1] (crystal soak 10 mM), the “Hit (PanDDA run, overall)” value is “TRUE”; the “Hit (PanDDA run, DMSO background map)” value is “TRUE”; the “1-BDC (PanDDA run, DMSO background map)” value came out at 0.21. Moreover, in assay [2], the Hill slope is given as 1.4 and the “SARS CoV-2 macrodomain HTRF assay: Hillslope” value is 1.4.
`CC1(C)CCC(O)(CNc2ncnc3[nH]ccc23)CC1` [AVI-4310]: the “PanDDA run, DMSO background map: 1-BDC” value in assay [1] worked out at 0.17. Also, in assay [1] (crystal soak 10 mM), the “Modeling comment (PanDDA run, overall)” value is given as “Weak density, not modeled”; the “Hit (PanDDA run, overall)” value is “TRUE”; the “Hit (PanDDA run, DMSO background map)” value was “TRUE”; the “1-BDC (PanDDA run, DMSO background map)” value was 0.14. In assay [2], the Hill slope was found to be 1.3 and the “SARS CoV-2 macrodomain HTRF assay: Hillslope” value stood at 1.3.
Take `OC1(CNc2ncnc3[nH]ccc23)CCCOC1` (stereo not drawn) [AVI-4311]: in assay [1], the “Occupancy difference” value was 0; the “Refined ligand occupancy (%)” value stood at 50%; the “PanDDA run, DMSO background map: 1-BDC” value is reported as 0.3; the 1-BDC was 0.25. In assay [1], the “Total number of conformations” value worked out at 1, the “2*(1-BDC) (%)” value is 50% and the “X-ray crystallography: Binding site” value was “Adenosine”. In addition, in assay [1] (crystal soak 10 mM), the “Hit (PanDDA run, overall)” value is listed as “TRUE”; the “Hit (PanDDA run, DMSO background map)” value is recorded as “TRUE”; the “1-BDC (PanDDA run, DMSO background map)” value is reported as 0.25. For the same compound, in assay [2], the Hill slope is on record as 1.4 and the “SARS CoV-2 macrodomain HTRF assay: Hillslope” value is given as 1.4.
For the compound `CC1CCC(O)(CNc2ncnc3[nH]ccc23)CC1` (stereo not drawn) [AVI-4312], in assay [1], the “Occupancy difference” value turned out to be 0; the “Refined ligand occupancy (%)” value was determined as 44%; the “PanDDA run, DMSO background map: 1-BDC” value is 0.22 and 0.3; the 1-BDC was determined as 0.22. For the same compound, in assay [1], the “Total number of conformations” value came to 1, the “2*(1-BDC) (%)” value is 44% and the “X-ray crystallography: Binding site” value is “Adenosine”. For the same compound, in assay [2], the Hill slope was found to be 1.2 and the “SARS CoV-2 macrodomain HTRF assay: Hillslope” value is recorded as 1.2.
As to `OC1(CNc2ncnc3[nH]ccc23)COC2CC1C2` (stereo not drawn) [AVI-4313], in assay [1], the “Occupancy difference” value turned out to be 0; the “Refined ligand occupancy (%)” value turned out to be 38%; the “PanDDA run, DMSO background map: 1-BDC” value was 0.19 and 0.2; the 1-BDC is recorded as 0.19. Besides, in assay [1], the “Total number of conformations” value stood at 1, the “2*(1-BDC) (%)” value is recorded as 38% and the “X-ray crystallography: Binding site” value is on record as “Adenosine”. For the same compound, in assay [2], the Hill slope is reported as 1.2 and the “SARS CoV-2 macrodomain HTRF assay: Hillslope” value amounted to 1.2.
Consider `OC1(CNc2ncnc3[nH]ccc23)CCOCC1` [AVI-4314], for which, in assay [1], the “Occupancy difference” value turned out to be 0; the “Refined ligand occupancy (%)” value turned out to be 30%; the “PanDDA run, DMSO background map: 1-BDC” value was 0.15 and 0.16; the 1-BDC turned out to be 0.15. Besides, in assay [1], the “Total number of conformations” value was 1, the “2*(1-BDC) (%)” value was 30% and the “X-ray crystallography: Binding site” value is on record as “Adenosine”. For the same compound, in assay [2], the Hill slope turned out to be 1.2 and the “SARS CoV-2 macrodomain HTRF assay: Hillslope” value is reported as 1.2.
Consider `O=S1(=O)CCCC(O)(CNc2ncnc3[nH]ccc23)C1` (stereo not drawn) [AVI-4317], for which, in assay [1], the “Occupancy difference” value worked out at 14; the “Refined ligand occupancy (%)” value came out at 100%; the “PanDDA run, DMSO background map: 1-BDC” value is 0.43 and 0.45; the 1-BDC is 0.43. Further, in assay [1], the Comment result is on record as “High occupancy, use manual refinement, DMSO”; the “Total number of conformations” value stood at 1; the “2*(1-BDC) (%)” value is listed as 86%; the “X-ray crystallography: Binding site” value was “Adenosine”. In assay [2], the Hill slope amounted to 1.2 and the “SARS CoV-2 macrodomain HTRF assay: Hillslope” value is 1.2.
As to `CN(CC1(O)CCOCC1)c1ncnc2[nH]ccc12` [AVI-4318], in assay [1], the “Occupancy difference” value is 0; the “Refined ligand occupancy (%)” value is 50%; the “PanDDA run, DMSO background map: 1-BDC” value was 0.26 and 0.25; the 1-BDC came to 0.25. For the same compound, in assay [1], the “Total number of conformations” value came to 1, the “2*(1-BDC) (%)” value was 50% and the “X-ray crystallography: Binding site” value is listed as “Adenosine”. Besides, in assay [2], the Hill slope is 1.2 and the “SARS CoV-2 macrodomain HTRF assay: Hillslope” value is listed as 1.2.
With `OC1(CNc2ncnc3[nH]ccc23)CCSCC1` [AVI-4319], in assay [1], the “Occupancy difference” value is on record as 0; the “Refined ligand occupancy (%)” value is reported as 32%; the “PanDDA run, DMSO background map: 1-BDC” value was 0.16 and 0.17; the 1-BDC amounted to 0.16. Moreover, in assay [1], the “Total number of conformations” value is recorded as 1, the “2*(1-BDC) (%)” value is on record as 32% and the “X-ray crystallography: Binding site” value is given as “Adenosine”. In assay [2], the Hill slope was 1.2 and the “SARS CoV-2 macrodomain HTRF assay: Hillslope” value turned out to be 1.2.
